Experimental data published in US5554542A, “Immunoassay for isothiazolones” (Rohm and Haas Company, priority 1993, dated 1996).

Columns and labels:
Assay type in all cases: binding, mouse
[1] = system: antibodies produced by cell culture 89-147EH9; test: CIEIA for detection of biocides, four inhibitors at several concentrations; details: for 10 Minute Absorbances × 1000: no inhibitor 515
Method: The supernatants from wells with growing colonies of hybridomas were screened using CIEIA. Ninety-six well polystyrene EIA ([…]) plates were coated with 100 μl of 651 conjugated to BSA (651-BSA) for at least two hours at room temperature or 16 hours at 4° C. Unbound material was washed from the wells with five washes of PBS-T. […] The wells then received 50 μl of supernatant from each cell culture, so that each supernatant was reacted with either buffer, 651 or 573 (inhibitors). […] The wells were incubated for 30-60 minutes at room temperature. They were then washed five times with PBS-T to remove unbound material and each well then received 100 μl of a 1 μg/ml solution of biotinylated horse anti-mouse IgG (Vector Laboratories, Burlingame, Calif.), and the assay continued as described for the ELISA, supra.

[2] = system: antibodies of 89-147EH9 clones; test: CIEIA reactivity of 89-147EH9 clones with compounds 651 and 573
Method: (§1) The supernatants from wells with growing colonies of hybridomas were screened using CIEIA. Ninety-six well polystyrene EIA ([…]) plates were coated with 100 μl of 651 conjugated to BSA (651-BSA) for at least two hours at room temperature or 16 hours at 4° C. Unbound material was washed from the wells with five washes of PBS-T. The wells then received 50 μl of buffer alone (PBS-T) or inhibitors, either 651 or 573, each diluted to 2 ppm in buffer. The wells then received 50 μl of supernatant from each cell culture, so that each supernatant was reacted with either buffer, 651 or 573 (inhibitors). […] The wells were incubated for 30-60 minutes at room temperature. They were then washed five times with PBS-T to remove unbound material and each well then received 100 μl of a 1 μg/ml solution of biotinylated horse anti-mouse IgG (Vector Laboratories, Burlingame, Calif.), and the assay continued as described for the ELISA, supra.
In order to assure that the antibodies reactive with compound 651 were produced by cells of the identical genetic makeup, it was necessary to derive clones of cell culture 89--147EH9. Cloning was accomplished by first determining the total number of viable cells in a population of 89-147EH9 cells. The cell population was then diluted to a density of 4-5 cells per ml of cell culture medium. Two hundred μl of this cell suspension was then planted in each well of four 96 well cell culture dishes, designated I-IV. Fourteen days later, each well was checked by microscopic evaluation for growing colonies of cells. Those with only a single loci of cells were designated monoclonal.
Subsequently, each colony was tested for reactivity in the ELISA described previously. Of the colonies, several were selected for expansion and retesting by CIEIA for reactivity with both 651 and 573.

[3] = system: antibodies in hybridoma culture supernatants (CF10, EH9, EC2, EC2 IB8); test: CIEIA of hybridoma culture supernatants; details: for Inhibition of antibody binding to coating antigen: cell culture 89-147EH9, coating antigen 651-BSA; for Inhibitors (Absorbance): coating 651-BSA
Method: as §1
If the antibodies in a supernatant were reactive with one or both of the inhibitors in solution in the wells, the antibody molecules, or a percentage of the antibody molecules, would bind to the inhibitors, and would therefore form an antibody-inhibitor complex which would stay in solution and be removed from the plate during the washing step. In such a case, the binding of the antibody to the inhibitor would reduce the number of antibody molecules available to bind to the coating antigen, 651-BSA. Because fewer antibody molecules are attached to the 651-BSA, there is a reduction in the number of biotinylated horse anti-mouse IgG molecules bound, resulting in fewer molecules of avidin-peroxidase complex being bound, resulting in reduced hydrolysis of the substrate, leading ultimately to lower absorbances.
It is possible to manipulate the CIEIA to achieve greater inhibition by varying the concentrations of coating antigen, antibodies and detection molecules (such as the horse anti-mouse IgG and the avidin-peroxidase complex). Such "optimization" of the CIEIA is used to obtain higher levels of sensitivity and allow the use of lower concentrations (i.e. higher dilutions) of the monoclonal antibodies.

[4] = system: antibodies in hybridoma culture supernatants (CF10, EH9, EC2, EC2 IB8); test: CIEIA of hybridoma culture supernatants; details: culture EH9, supernatant dilution 1:4, tested versus 0.4 ppm of inhibitor, coating 651-BSA; no inhibitor 0.515
[5] = inhibitor concentration 0.08 ppm
[6] = inhibitor concentration 0.4 ppm
[7] = clone IA5, inhibitor 1 PPM, PBS 528
[8] = clone ID5, inhibitor 1 PPM, PBS 584
[9] = clone ID8, inhibitor 1 PPM, PBS 746
[10] = clone IID1, inhibitor 1 PPM, PBS 060
[11] = clone IIIH6, inhibitor 1 PPM, PBS 647
[12] = clone IVE1, inhibitor 1 PPM, PBS 818
[13] = clone IVE4, inhibitor 1 PPM, PBS 595
[14] = clone IVF12, inhibitor 1 PPM, PBS 090
[15] = clone IVH2, inhibitor 1 PPM, PBS 680
[16] = culture CF10, supernatant dilution 1:2, inhibitor 1 PPM, no inhibitor 0.485
[17] = culture CF10, supernatant dilution 1:2.5, inhibitor 1 PPM, no inhibitor 0.121
[18] = culture EC2, supernatant dilution 1:2, inhibitor 1 PPM, no inhibitor 0.847
[19] = culture EC2, supernatant dilution 1:12, inhibitor 1 PPM, no inhibitor 0.917
[20] = culture EC2 IB8 (a clone of 89147EC2), supernatant dilution 1:6, inhibitor 1 PPM, no inhibitor 0.169
[21] = culture EH9, supernatant dilution 1:2, inhibitor 1 PPM, no inhibitor 0.170
[22] = culture EH9, supernatant dilution 1:2.5, inhibitor 1 PPM, no inhibitor 0.386

SMILES	10 Minute Absorbances × 1000 [1, 5]	10 Minute Absorbances × 1000 [1, 6]	10 Minute Absorbances × 1000 ([1]; inhibitor concentration 2 ppm)	10 Minute Absorbances × 1000 ([1]; inhibitor concentration 10 ppm)	% I (percentage inhibition) ([2]; clone IA5, inhibitor 1 PPM)	Absorbances × 1000 [2, 7]	% I (percentage inhibition) ([2]; clone ID5, inhibitor 1 PPM)	Absorbances × 1000 [2, 8]	% I (percentage inhibition) ([2]; clone ID8, inhibitor 1 PPM)	Absorbances × 1000 [2, 9]	% I (percentage inhibition) ([2]; clone IID1, inhibitor 1 PPM)	Absorbances × 1000 [2, 10]	% I (percentage inhibition) ([2]; clone IIIH6, inhibitor 1 PPM)	Absorbances × 1000 [2, 11]	% I (percentage inhibition) ([2]; clone IVE1, inhibitor 1 PPM)	Absorbances × 1000 [2, 12]	% I (percentage inhibition) ([2]; clone IVE4, inhibitor 1 PPM)	Absorbances × 1000 [2, 13]	% I (percentage inhibition) ([2]; clone IVF12, inhibitor 1 PPM)	Absorbances × 1000 [2, 14]	other results
Cn1sccc1=O [compound 573, 2-methyl-3-isothiazolone]	590	461	504	344	10.8%	471	0.0%	671	0.0%	1068	< 1.0%	057	0.0%	705	34.1%	539	9.4%	539	18.9%	073	10 Minute Absorbances × 1000 ([1]; inhibitor concentration 50 ppm): 191; % I (percentage inhibition) ([2]; clone IVH2, inhibitor 1 PPM): 7.0%; Absorbances × 1000 [2, 15]: 632; Inhibition of antibody binding to coating antigen [3]: inhibitable; Inhibitors (Absorbance) [3, 16]: 0.479; Inhibitors (Absorbance) [3, 17]: 0.099; Inhibitors (Absorbance) [3, 18]: 0.520; Inhibitors (Absorbance) [3, 19]: 0.872; Inhibitors (Absorbance) [3, 20]: 0.121; Inhibitors (Absorbance) [3, 21]: 0.117; Inhibitors (Absorbance) [3, 22]: 0.135; Inhibitors (Absorbance) [4]: 0.504
Cn1sc(Cl)cc1=O [compound 651, 5-chloro-2-methyl-3-isothiazolone]	448	338	185	106	34.1%	348	26.5%	429	0.0%	807	< 1.0%	055	27.2%	471	44.7%	452	39.3%	361	27.8%	065	Relative reactivity of the antibodies with the compounds tested ([1]; 89-147EH9 antibodies, 651 versus similar amounts of other biocides): more strongly reactive; 10 Minute Absorbances × 1000 ([1]; inhibitor concentration 0.016 ppm): 491; % I (percentage inhibition) ([2]; clone IVH2, inhibitor 1 PPM): 46.2%; Absorbances × 1000 [2, 15]: 366; Inhibition of antibody binding to coating antigen [3]: inhibitable; Inhibitors (Absorbance) [3, 16]: 0.419; Inhibitors (Absorbance) [3, 17]: 0.119; Inhibitors (Absorbance) [3, 18]: 0.652; Inhibitors (Absorbance) [3, 19]: 0.910; Inhibitors (Absorbance) [3, 20]: 0.124; Inhibitors (Absorbance) [3, 21]: 0.150; Inhibitors (Absorbance) [3, 22]: 0.122; Inhibitors (Absorbance) [4]: 0.186
